US20250230138A1, “COMPOUNDS HAVING A T-STRUCTURE FORMED BY AT LEAST FOUR CYCLES FOR USE IN THE TREATMENT OF CANCER AND OTHER INDICATIONS” (TheRas, Inc., priority 2022, published 2025)
Where two headings read alike, the source gives them in different places.

Tests used:
[1] = molecular target: Cys242 in human PIK3CA (157-299) (Homo sapiens (Human), UniProt P42336); assay: Covalent modification assay using MALDI-TOF MS; type: biochemical; settings: 4 h reaction time point
Method in brief: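 Covalent adduct formation was read by linear-mode MALDI-TOF with sinapinic acid matrix, reported as modified-protein peak height divided by total protein peak heights. Reactions held PIK3CA (157-299) at 1 or 3.33 μM in HEPES/NaCl/MgCl2 buffer, pH 7.3, sampled after 15 min to 4 h at room temperature.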

pAKT in BT474 cells = assay: Cell-based pAKT HTRF assay in BT474 cells; settings: BT474 cells, 4 hr incubation, read-out: pAKT inhibition IC50 in BT474 cells
Method in brief: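 The HTRF signal (excitation 320 nm, emission 615 nm) came from d2/Eu Cryptate antibodies added to lysates and incubated 4–24 h at room temperature. Those lysates were taken from cells treated for 4 hr with compound, top concentration 3 μM, in 0.25% DMSO.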

[2] = 3.33 μM protein target, 1:7.5 protein to compound ratio (compounds 1-852)
[3] = 1 μM protein target, 1:5 protein to compound ratio (compounds 853-1279)
[4] = Homo sapiens, BT-474, Compounds 10-999

Chain of Cys242 in human PIK3CA (157-299) (P42336 157-299): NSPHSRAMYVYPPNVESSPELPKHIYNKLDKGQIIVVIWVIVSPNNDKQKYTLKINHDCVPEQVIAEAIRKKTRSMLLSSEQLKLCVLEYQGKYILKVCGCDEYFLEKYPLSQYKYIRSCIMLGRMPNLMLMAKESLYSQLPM

Row | Compound | % of modification [1, 2] | IC50 (pAKT in BT474 cells; Compounds 10-999) [µM] | other results
1 | C=CC(=O)N1CCn2nc(-c3nc(-c4ccc5c(c4)ncn5C)c4ccsc4c3-c3c(F)cc(F)cc3OCCO)cc2[C@@H]1C [Compound 664, 1-((S)-2-((S)-7-(2,4-difluoro-6-(2-hydroxyethoxy)phenyl)-4-(1-methyl-1H-benzo[d]imidazol-5-yl)thieno[3,2-c]pyridin-6-yl)-4-methyl-6,7-dihydropyrazolo[1,5-a]pyrazin-5(4H)-yl)prop-2-en-1-one] | A (percent of modification of PIK3CA protein ≥75%) | < 0.1 | 
2 | C=CC(=O)N1CCn2nc(-c3nc(-c4ccc5cnn(C)c(=O)c5c4)c4ccsc4c3-c3c(F)cc(F)cc3OCCOC)cc2[C@@H]1C [Compound 898] |  | < 0.1 | % of modification [1, 3]: A (percent of modification of PIK3CA protein ≥75%)
3 | C=CC(=O)N1CCc2nc(-c3nc(-c4ccc5c(c4)CCN(C)C5)c4ccsc4c3-c3c(F)cc(F)cc3OCC)sc2C1 [Compound 438] | A (percent of modification of PIK3CA protein ≥75%) | 0.1 to 1 | 
4 | C=CC(=O)N1CCc2cnc(-c3nc(-c4ccc5c(c4)CNC5=O)c4ccsc4c3-c3c(F)cc(F)cc3OC(C)C)cc2C1 [Compound 453, 5-[7-(2,4-difluoro-6-isopropoxy-phenyl)-6-(6-prop-2-enoyl-7,8-dihydro-5H-2,6-naphthyridin-3-yl)thieno[3,2-c]pyridin-4-yl]isoindolin-1-one] | A (percent of modification of PIK3CA protein ≥75%) |  | IC50 (pAKT in BT474 cells; [4]): < 0.1 µM
5 | C=CC(=O)N1CC(n2cc(-c3nc(C4=CCN(C(C)=O)CC4)c4ccsc4c3-c3ccc(F)cc3OC)cn2)C1 [Compound 298] | A (percent of modification of PIK3CA protein ≥75%) | 0.1 to 1 | 
6 | C=CC(=O)N1CCn2nc(-c3nc(-c4ccc5c(c4)[C@@H](O)CC5)c4ccsc4c3-c3ccc(F)cc3OCCOC)cc2C1 [Compound 262] | A (percent of modification of PIK3CA protein ≥75%) | < 0.1 | 
7 | C=CC(=O)N1CCc2nc(-c3nc(-c4ccc(=O)n(C)c4)c4ccsc4c3-c3c(F)cc(F)cc3OCCOC)sc2C1 [Compound 997] |  | < 0.1 | % of modification [1, 3]: A (percent of modification of PIK3CA protein ≥75%)
8 | C=CC(=O)N1CCn2nc(-c3nc(-c4ccc5c(c4)CCNC5=O)c4ccsc4c3-c3ccc(F)cc3OC3CC3)cc2C1 [Compound 302] | A (percent of modification of PIK3CA protein ≥75%) | < 0.1 | 
9 | C=CC(=O)N1CCc2nc(-c3nc(-c4cnc5c(c4)CNC(=O)C5)c4ccsc4c3-c3c(F)cc(F)cc3OC(C)C)sc2C1 (single isomer, unassigned) [Compound 587] | D (percent of modification <25%) | > 3 | 
10 | C=C(F)C(=O)N1CCn2nc(-c3nc(-c4ccc5c(c4)CNC5=O)c4ccsc4c3-c3c(F)cc(F)cc3OCC(F)F)cc2C1 [Compound 353] | B (50%<percent of modification <75%) | 0.1 to 1 | 
11 | C=CC(=O)N1Cc2cc(-c3nc(-c4ccc(P(C)(C)=O)cc4)c4ccsc4c3-c3c(F)cc(F)cc3OCCOC)nn2C[C@H]1C [Compound 800, 1-[(6R)-2-[7-[2,4-difluoro-6-(2-methoxyethoxy)phenyl]-4-(4-dimethylphosphorylphenyl)thieno[3,2-c]pyridin-6-yl]-6-methyl-6,7-dihydro-4H-pyrazolo[1,5-a]pyrazin-5-yl]prop-2-en-1-one] | A (percent of modification of PIK3CA protein ≥75%) |  | IC50 (pAKT in BT474 cells; [4]): < 0.1 µM
12 | C=CC(=O)N1CCC(n2cc(-c3nc(-c4ccc5c(c4)CNC(=O)C5)c4ccsc4c3-c3ccccc3)cn2)CC1 [Compound 75] | B (50%<percent of modification <75%) | > 3 | 
13 | C=CC(=O)N1CCn2nc(-c3nc(N4Cc5cn(C)nc5C4)c4ccsc4c3-c3c(F)cc(F)cc3OCCOC)cc2C1C (stereo not drawn) [Compound 1230] |  |  | % of modification [1, 3]: A (percent of modification of PIK3CA protein ≥75%); IC50 (pAKT in BT474 cells; Compounds 1000-1279): 0.1 to 1 µM
14 | C=CC(=O)N1CCc2ccc(-c3nc(-c4cnc5c(c4)CN(C)CC5)c4ccsc4c3-c3c(F)cc(F)cc3OCCO)cc2C1 [Compound 498] | A (percent of modification of PIK3CA protein ≥75%) | < 0.1 | 
15 | C=CC(=O)N1CCn2nc(-c3nc(-c4ccc(C5CCCN5C)cc4)c4ccsc4c3-c3c(F)cc(F)cc3OCCOC)cc2C1C (stereo not drawn) [Compound 1224] |  |  | % of modification [1, 3]: A (percent of modification of PIK3CA protein ≥75%); IC50 (pAKT in BT474 cells; Compounds 1000-1279): < 0.1 µM
16 | C=CC(=O)N1Cc2cc(-c3nc(-c4cnc(C)nc4)c4ccsc4c3-c3c(F)cc(F)cc3OCCO)nn2C(C)C1 (stereo not drawn) [Compound 785] | A (percent of modification of PIK3CA protein ≥75%) | < 0.1 | 
17 | C=CC(=O)N1Cc2cc(-c3nc(-c4cnc5c(c4)CN(C)C5=O)c4ccsc4c3-c3c(F)cc(F)cc3OCCOC)nn2C[C@H]1C [Compound 504] | A (percent of modification of PIK3CA protein ≥75%) | < 0.1 | 
18 | C=CC(=O)N1CCc2ccc(-c3nc(-c4cnc5c(c4)CNC(=O)C5)c4ccsc4c3-c3c(F)cc(F)cc3OCCOC)cc2C1 [Compound 579, (R)-3-(6-(2-acryloyl-1,2,3,4-tetrahydroisoquinolin-7-yl)-7-(2,4-difluoro-6-(2-methoxyethoxy)phenyl)thieno[3,2-c]pyridin-4-yl)-5,8-dihydro-1,6-naphthyridin-7(6H)-one] | D (percent of modification <25%) | 1 to 3 | 
19 | C=CC(=O)N1Cc2cc(-c3nc(C45CC(C(=O)NC)(C4)C5)c4ccsc4c3-c3c(F)cc(F)cc3OCCOC)nn2C[C@H]1C [Compound 1071, 3-((S)-6-((R)-5-acryloyl-6-methyl-4,5,6,7-tetrahydropyrazolo[1,5-a]pyrazin-2-yl)-7-(2,4-difluoro-6-(2-methoxyethoxy)phenyl)thieno[3,2-c]pyridin-4-yl)-N-methylbicyclo[1.1.1]pentane-1-carboxamide] |  |  | % of modification [1, 3]: B (50%<percent of modification <75%); IC50 (pAKT in BT474 cells; Homo sapiens, BT-474, Compounds 1000-1279): < 0.1 µM
20 | C=CC(=O)N1CC(n2cc(-c3nc(-c4ccc5c(c4)CCNCC5)c4ccsc4c3-c3ccc(F)cc3OC)cn2)C1 [Compound 102] | A (percent of modification of PIK3CA protein ≥75%) | 0.1 to 1 | 
21 | C=CC(=O)N1CCc2ncc(-c3nc(-c4cnnc(C)c4)c4ccsc4c3-c3c(F)cc(F)cc3OCCOC)cc2C1 [Compound 383] | A (percent of modification of PIK3CA protein ≥75%) | < 0.1 | 
22 | C=CC(=O)N1C[C@H](C)n2nc(-c3nc(-c4cnn(C)c4)c4ccsc4c3-c3c(F)cc(F)cc3OCCOC)cc2[C@H]1C [Compound 583] | A (percent of modification of PIK3CA protein ≥75%) | < 0.1 | 
23 | C=CC(=O)N1CCc2ncc(-c3nc(-c4ccc5c(c4)CCNC5)c4ccsc4c3-c3ccc(F)cc3OCCOC)cc2C1 [Compound 62, 1-[3-[7-[4-fluoro-2-(2-methoxyethoxy)phenyl]-4-(1,2,3,4-tetrahydroisoquinolin-6-yl)thieno[3,2-c]pyridin-6-yl]-7,8-dihydro-5H-1,6-naphthyridin-6-yl]prop-2-en-1-one] | A (percent of modification of PIK3CA protein ≥75%) |  | IC50 (pAKT in BT474 cells; [4]): < 0.1 µM
24 | C=CC(=O)N1Cc2cc(-c3nc(-c4ccc5c(c4)CCNC5=O)c4ccsc4c3-c3c(F)cc(F)cc3OCCO)nn2CC1C (stereo not drawn) [Compound 907] |  | < 0.1 | % of modification [1, 3]: A (percent of modification of PIK3CA protein ≥75%)
